Source: ChEMBL document CHEMBL1131452 (J Med Chem, 1998)

How the values were obtained:
[1] = species: Homo sapiens; assay: Evaluated in vitro for its inhibitory activity on LPS-induced TNF-Alpha release in human monocyte.; type: functional
[2] = target: Phosphodiesterase 4 (Homo sapiens, UniProt P27815+Q08499+Q07343+Q08493); assay: Evaluated in vitro for its inhibitory activity on human monocyte cytosol Phosphodiesterase type 4 (PDE4).; type: protein assay
[3] = species: Homo sapiens; assay: Evaluated in vitro for its inhibitory activity on LPS-induced TNF-Alpha release in human whole blood.; type: functional, organism-based
[4] = target: 3',5'-cyclic-AMP phosphodiesterase 4A (Homo sapiens, UniProt P27815); assay: Evaluated in vitro for its inhibitory activity on unpurified recombinant Phosphodiesterase type 4A (PDE4A).
3',5'-cyclic-AMP phosphodiesterase 4A, sequence (P27815 whole entry): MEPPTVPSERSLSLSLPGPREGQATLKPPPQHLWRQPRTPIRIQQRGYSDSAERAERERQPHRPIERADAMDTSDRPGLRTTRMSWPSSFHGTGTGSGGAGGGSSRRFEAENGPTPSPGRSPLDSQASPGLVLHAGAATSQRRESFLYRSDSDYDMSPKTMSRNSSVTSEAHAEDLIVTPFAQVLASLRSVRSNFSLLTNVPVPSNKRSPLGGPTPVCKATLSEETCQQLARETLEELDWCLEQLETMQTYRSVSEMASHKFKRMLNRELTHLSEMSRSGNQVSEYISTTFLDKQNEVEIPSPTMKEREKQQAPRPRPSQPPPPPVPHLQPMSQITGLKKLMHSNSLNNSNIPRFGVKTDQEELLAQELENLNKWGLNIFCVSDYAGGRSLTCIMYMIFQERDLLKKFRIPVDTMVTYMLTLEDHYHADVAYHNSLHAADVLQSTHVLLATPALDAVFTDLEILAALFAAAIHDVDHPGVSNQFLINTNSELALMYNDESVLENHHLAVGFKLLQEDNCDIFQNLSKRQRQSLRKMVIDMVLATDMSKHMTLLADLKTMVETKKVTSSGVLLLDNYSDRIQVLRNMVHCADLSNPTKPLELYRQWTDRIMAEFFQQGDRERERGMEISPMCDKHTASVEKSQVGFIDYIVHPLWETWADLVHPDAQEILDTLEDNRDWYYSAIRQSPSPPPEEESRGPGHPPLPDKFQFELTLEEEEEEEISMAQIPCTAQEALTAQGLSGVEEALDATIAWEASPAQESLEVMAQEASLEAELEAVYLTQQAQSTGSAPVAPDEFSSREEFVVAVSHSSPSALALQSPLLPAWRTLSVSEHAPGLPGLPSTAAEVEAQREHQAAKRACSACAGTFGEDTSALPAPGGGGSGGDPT

[5] = target: 3',5'-cyclic-AMP phosphodiesterase 4C (Homo sapiens, UniProt Q08493); assay: Evaluated in vitro for its inhibitory activity on unpurified recombinant Phosphodiesterase 4C
3',5'-cyclic-AMP phosphodiesterase 4C, sequence (Q08493 whole entry): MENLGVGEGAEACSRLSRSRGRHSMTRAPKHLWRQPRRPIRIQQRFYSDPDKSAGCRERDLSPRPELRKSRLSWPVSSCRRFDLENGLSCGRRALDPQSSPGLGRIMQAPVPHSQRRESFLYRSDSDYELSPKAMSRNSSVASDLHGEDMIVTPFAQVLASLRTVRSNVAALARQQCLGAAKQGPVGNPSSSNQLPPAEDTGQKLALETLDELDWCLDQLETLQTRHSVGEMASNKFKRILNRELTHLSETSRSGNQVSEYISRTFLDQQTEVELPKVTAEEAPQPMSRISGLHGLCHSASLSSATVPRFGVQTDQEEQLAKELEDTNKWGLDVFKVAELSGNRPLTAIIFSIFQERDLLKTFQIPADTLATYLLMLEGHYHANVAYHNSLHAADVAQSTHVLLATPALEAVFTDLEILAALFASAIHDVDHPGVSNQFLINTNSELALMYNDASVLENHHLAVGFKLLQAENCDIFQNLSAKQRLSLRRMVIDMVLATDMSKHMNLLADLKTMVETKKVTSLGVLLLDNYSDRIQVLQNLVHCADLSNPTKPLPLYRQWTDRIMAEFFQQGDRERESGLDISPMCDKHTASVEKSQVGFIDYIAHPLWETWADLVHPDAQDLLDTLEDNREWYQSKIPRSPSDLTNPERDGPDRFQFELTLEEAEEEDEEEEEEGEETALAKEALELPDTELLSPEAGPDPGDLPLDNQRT

[6] = target: 3',5'-cyclic-AMP phosphodiesterase 4D (Homo sapiens, UniProt Q08499); assay: In vitro inhibitory activity on unpurified recombinant Phosphodiesterase 4D
3',5'-cyclic-AMP phosphodiesterase 4D, sequence (Q08499 whole entry): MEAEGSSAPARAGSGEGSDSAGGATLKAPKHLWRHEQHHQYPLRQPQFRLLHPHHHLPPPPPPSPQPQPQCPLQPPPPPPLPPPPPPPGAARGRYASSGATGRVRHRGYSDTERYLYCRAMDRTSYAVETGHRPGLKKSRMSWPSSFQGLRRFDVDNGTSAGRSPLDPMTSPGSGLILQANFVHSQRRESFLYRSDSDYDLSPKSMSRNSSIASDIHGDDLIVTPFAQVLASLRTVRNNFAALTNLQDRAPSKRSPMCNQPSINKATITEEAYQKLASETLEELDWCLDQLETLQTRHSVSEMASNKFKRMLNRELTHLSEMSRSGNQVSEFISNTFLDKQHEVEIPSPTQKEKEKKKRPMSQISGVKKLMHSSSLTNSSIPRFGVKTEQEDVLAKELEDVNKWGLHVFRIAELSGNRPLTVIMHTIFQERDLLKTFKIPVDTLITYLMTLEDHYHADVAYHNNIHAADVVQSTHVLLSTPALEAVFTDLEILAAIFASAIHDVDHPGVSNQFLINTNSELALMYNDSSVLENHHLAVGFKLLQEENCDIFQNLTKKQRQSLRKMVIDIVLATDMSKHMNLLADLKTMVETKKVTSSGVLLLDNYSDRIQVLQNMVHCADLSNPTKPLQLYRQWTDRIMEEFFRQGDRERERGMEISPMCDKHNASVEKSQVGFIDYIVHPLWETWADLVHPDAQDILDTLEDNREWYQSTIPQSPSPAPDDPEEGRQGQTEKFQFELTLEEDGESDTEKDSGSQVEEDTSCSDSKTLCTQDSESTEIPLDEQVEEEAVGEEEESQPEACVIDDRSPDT

[7] = target: 3',5'-cyclic-AMP phosphodiesterase 4B (Homo sapiens, UniProt Q07343); assay: Inhibition of recombinant human Phosphodiesterase 4B
3',5'-cyclic-AMP phosphodiesterase 4B, sequence (Q07343 whole entry): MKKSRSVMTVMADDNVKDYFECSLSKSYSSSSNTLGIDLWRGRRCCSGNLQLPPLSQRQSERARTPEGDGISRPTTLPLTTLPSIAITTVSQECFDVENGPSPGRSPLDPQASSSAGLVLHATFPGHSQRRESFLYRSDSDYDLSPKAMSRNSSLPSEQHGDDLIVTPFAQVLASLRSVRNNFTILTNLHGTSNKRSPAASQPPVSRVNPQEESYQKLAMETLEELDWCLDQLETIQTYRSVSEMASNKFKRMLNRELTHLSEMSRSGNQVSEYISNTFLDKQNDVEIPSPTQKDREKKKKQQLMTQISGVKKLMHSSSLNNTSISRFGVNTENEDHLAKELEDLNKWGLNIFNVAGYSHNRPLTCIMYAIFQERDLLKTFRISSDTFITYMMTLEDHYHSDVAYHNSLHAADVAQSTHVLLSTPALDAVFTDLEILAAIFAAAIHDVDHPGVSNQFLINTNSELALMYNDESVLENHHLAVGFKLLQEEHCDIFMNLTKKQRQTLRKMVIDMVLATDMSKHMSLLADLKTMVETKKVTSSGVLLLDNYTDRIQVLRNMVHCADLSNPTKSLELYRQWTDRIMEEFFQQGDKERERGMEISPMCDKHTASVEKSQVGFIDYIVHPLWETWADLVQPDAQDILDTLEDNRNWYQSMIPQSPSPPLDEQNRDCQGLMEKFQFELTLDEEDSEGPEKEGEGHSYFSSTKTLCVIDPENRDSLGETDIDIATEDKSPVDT

SMILES	IC50 [1]	IC50 [2]	IC50 [3]	IC50 [4]	IC50 [5]	IC50 [6]	IC50 [7]
COc1ccc(C2=NOC(C(=O)N(C)O)C2)cc1OC1CCCC1 (configuration not stated)	10200 nM	3960 nM					
COc1ccc(-c2cc(C(=O)NO)on2)cc1OC1CCCC1	848 nM	1650 nM					
CCCC1(C(=O)NO)CC(c2ccc(OC)c(OC3CCCC3)c2)=NO1 (configuration not stated)	1020 nM	567 nM					
COc1ccc(C(=O)NCC(=O)O)cc1OC1CCCC1	> 50000 nM	1760 nM					
COc1ccc(C2=NOC(C(=O)O)C2)cc1OC1CCCC1 (configuration not stated)	35100 nM	2540 nM					
COc1ccc(C2=NOC(CC(=O)NO)C2)cc1OC1CCCC1 (configuration not stated)	138 nM	221 nM					
COc1ccc(C(=O)Nc2c(Cl)cncc2Cl)cc1OC1CCCC1	2 nM		80 nM				
COc1ccc(C2=NOC(C(N)=O)C2)cc1OC1CCCC1 (configuration not stated)	4240 nM	3930 nM					
COc1ccc(C(=O)NCC(=O)NO)cc1OC1CCCC1	32 nM	249 nM	66 nM	27.2 nM	15.3 nM	15.6 nM	17.9 nM
COc1ccc(C(=O)NC(C)C(=O)NO)cc1OC1CCCC1 (configuration not stated)			50 nM	50.7 nM	126 nM	20.2 nM	22.2 nM
COc1ccc(C2CNC(=O)C2)cc1OC1CCCC1 (configuration not stated) [ROLIPRAM]	379 nM		660 nM				
CCC1(C(=O)NO)CC(c2ccc(OC)c(OC3CCCC3)c2)=NO1 (configuration not stated)	230 nM	178 nM					
COc1ccc(C2=NOC(C)(C(=O)NO)C2)cc1OC1CCCC1 (configuration not stated)			74 nM	9.8 nM	95.2 nM	10 nM	10.9 nM
COc1ccc(C2=NOC(C(=O)NO)C2)cc1OC1CCCC1 (configuration not stated)			30 nM	2.2 nM	18 nM	2.7 nM	2.1 nM
